Test results as given in patent US7084301B2 (Ranbaxy Laboratories Limited, priority 2003, dated 2006).
pKi: −log10 of the molar value. Like-named read-outs stand apart in the source and are kept apart here.

Key:
human α1B-adrenoceptors = biological target: T1, human α1B-adrenoceptors (Homo sapiens, UniProt P35368); experiment: Radioligand-receptor binding assay, human recombinant α1B-adrenoceptor, [3H]prazosin
T1 sequence (P35368 1-520): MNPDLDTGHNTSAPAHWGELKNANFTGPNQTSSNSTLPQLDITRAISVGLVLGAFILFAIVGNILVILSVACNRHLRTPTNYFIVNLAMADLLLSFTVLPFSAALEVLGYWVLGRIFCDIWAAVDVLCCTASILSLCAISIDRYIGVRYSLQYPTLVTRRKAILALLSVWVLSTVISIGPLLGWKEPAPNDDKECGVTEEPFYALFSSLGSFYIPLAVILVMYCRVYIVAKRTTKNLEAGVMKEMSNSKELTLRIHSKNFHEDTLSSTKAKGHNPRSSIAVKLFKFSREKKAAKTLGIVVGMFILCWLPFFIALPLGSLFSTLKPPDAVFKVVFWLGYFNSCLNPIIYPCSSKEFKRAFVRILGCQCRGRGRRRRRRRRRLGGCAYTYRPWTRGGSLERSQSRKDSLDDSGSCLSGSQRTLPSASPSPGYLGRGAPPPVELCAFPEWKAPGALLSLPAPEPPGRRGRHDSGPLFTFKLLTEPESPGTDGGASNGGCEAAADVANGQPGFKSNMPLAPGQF
Procedure: Chinese hamster ovary (CHO) cells which had been stably transfected with human α1A, α1B, or α1D-adrenoceptors (Keffel et al., Biochem. Biophys. Res. Commun., 2000, 272, 906–11) were cultured in an atmosphere of 5% CO2/95% air at 37° C. in F-12 HAM medium supplemented with 10% heat-inactivated fetal calf serum, 1 mM glutamine, 100 U/ml penicillin and 0.1 mg/ml streptomycin. Selection pressure was maintained by regular addition of geneticin to the culture medium.
Competitive radioligand binding to the cloned subtypes of […] was performed using [^3H]prazosin as the radioligand as described by Michel et al, Br. J. Pharmacol., 98, 883–889 (1989) with minor modifications. Experiments were performed in binding buffer consisting of 50 mM Tris, 10 mM MgCl2 and 0.5 mM EDTA at pH 7.5 in a total assay volume of 1000 μl. The protein content typically was 40–60 μg/assay. The mixtures were incubated at 25° C. for 45 minutes. Incubations were terminated by rapid vacuum filtration over GF/C filters followed by two washes of the filters each with 10 ml ice-cold incubation buffer. Non-specific binding was defined as binding in the presence of 10 μM phentolamine.
The IC50 & Kd were estimated by using the non-linear curve fitting program using G Pad Prism software. The value of inhibition constant Ki was calculated from competitive binding studies by using Cheng & Prusoff equation [Cheng & Prusoff, Biochem. Pharmacol., 22, 3099–3108 (1973)], Ki=IC50/(1+L/Kd), where L is the concentration of [^3H] prazosin used in the particular experiment. Kd of [^3H] prazosin was determined from saturation binding studies. The values were tabulated as mean±SEM of pKi values, where pKi is the −log of Ki value.

5-HT1A receptors = biological target: T2, 5-HT1A receptors (Homo sapiens, UniProt P08908); experiment: biochemical; type: binding
T2 sequence (P08908 1-422): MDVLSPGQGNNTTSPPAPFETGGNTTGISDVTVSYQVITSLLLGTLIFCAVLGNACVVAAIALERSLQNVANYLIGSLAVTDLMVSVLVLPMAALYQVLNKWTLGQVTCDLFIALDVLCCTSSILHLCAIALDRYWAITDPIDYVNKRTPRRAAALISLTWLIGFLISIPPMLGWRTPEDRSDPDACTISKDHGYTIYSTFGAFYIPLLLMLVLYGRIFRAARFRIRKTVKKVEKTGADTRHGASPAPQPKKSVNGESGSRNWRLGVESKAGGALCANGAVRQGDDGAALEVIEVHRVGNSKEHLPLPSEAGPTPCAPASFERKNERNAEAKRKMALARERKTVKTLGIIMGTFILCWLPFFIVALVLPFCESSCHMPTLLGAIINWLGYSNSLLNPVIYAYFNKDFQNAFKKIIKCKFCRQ
Procedure: Receptor binding assays were performed using human recombinant 5HT1A receptors. […] Non-specific binding was defined by 10 μM Metergoline.

[1] = biological target: T3, rat α1A-adrenoceptor (prostate) (Rattus norvegicus, UniProt P43140); experiment: In-vitro functional study, agonist-induced contractile response on isolated rat prostate; type: biochemical
T3 sequence (P43140 1-466): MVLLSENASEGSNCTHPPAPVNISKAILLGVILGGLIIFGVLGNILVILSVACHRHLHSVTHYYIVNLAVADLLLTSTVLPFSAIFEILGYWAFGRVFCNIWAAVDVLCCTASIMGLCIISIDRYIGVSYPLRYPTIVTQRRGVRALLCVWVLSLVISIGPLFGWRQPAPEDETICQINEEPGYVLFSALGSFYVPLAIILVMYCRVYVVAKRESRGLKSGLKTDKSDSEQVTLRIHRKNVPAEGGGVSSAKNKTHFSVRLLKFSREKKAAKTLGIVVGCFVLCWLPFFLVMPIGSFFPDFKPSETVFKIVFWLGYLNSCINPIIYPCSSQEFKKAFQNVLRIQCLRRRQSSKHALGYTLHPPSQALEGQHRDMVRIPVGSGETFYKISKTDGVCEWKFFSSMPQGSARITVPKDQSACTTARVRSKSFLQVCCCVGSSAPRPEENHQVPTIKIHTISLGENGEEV
Procedure: Aorta, prostate and spleen tissues were isolated from urethane anaesthetized (1.5 gm/kg) male wistar rats. […] A resting tension of 2 g (aorta) or 1 g (spleen and prostate) was applied to tissues. Contractile response was monitored using a force displacement transducer and recorded on chart recorders. Tissues were allowed to equilibrate for 2 hours. At the end of equilibration period, concentration response curves to norepinephrine (aorta) and phenylepinephrine (spleen and prostate) were obtained in absence and presence of tested compound (at concentrations of […]). Antagonist affinities were calculated and expressed as pKB vales in Table II.
To compare the differences in pKB at the α1-arenrenoceptor subtypes one-way ANOVA followed by Dunett ‘t’ test was applied. A p<0.05 was considered statistically significant.

Row | SMILES | Ki (human α1B-adrenoceptors; human recombinant receptors in CHO cells, mean ± SEM, read-out: pKi α1B (converted)) | Ki (5-HT1A receptors; human recombinant receptors, read-out: PKi 5HT1A (converted)) | Kb ([1]; rat prostate, phenylepinephrine-induced contraction, read-out: pKB α1A (converted)) | pKi (human α1B-adrenoceptors) | pKi (5-HT1A receptors) | fold greater α1A versus 5HT1A selectivity as compared to tamsulosin (5-HT1A receptors; Tables I and III) | fold lower affinity for 5HT1A receptors than tamsulosin (5-HT1A receptors; human recombinant receptors) | Kb [1] | α1A versus α1B selectivity ([1]; functional assays, rat tissues)
1 | CCOc1ccccc1OCCNC(C)Cc1ccc(OC)c(S(N)(=O)=O)c1 (single isomer, unassigned; (-)) [Tamsulosin, (−) isomer of 5-[2-[2-(2-ethoxyphenoxy)ethylamino]-2-methylethyl]-2-methoxybenzene sulfonamide, reference compound] | 0.692 nM | 0.794 nM | 0.0309 nM |  |  |  |  |  | 
2 | CCOc1ccccc1OCCN[C@H](C)Cc1ccc(O)c(S(N)(=O)=O)c1 [Formula I, R (−)-5-[2-[[2-(2-ethoxyphenoxy)ethyl]amino]propyl]-2-hydroxybenzenesulfonamide] |  |  |  | 9.49 | 8.01 | 27 fold | 12.6 fold | 0.0162 nM | 31 fold
